Laboratory results published in patent publication US20080280954A1, “Method of Improving Wakefulness” (VANDA PHARMACEUTICALS, INC, priority 2005, published 2008).
Read-outs that look alike come from different tables or passages of the source.

Legend:
[1] = system: sleep-wakefulness cycle in rats with lesions of the nucleus basalis of Meynert (NBM) and locus coeruleus (LC)
Procedure: In a second set of experiment, oral actions of Compound A were evaluated in the sleep-wakefulness cycle in rats with lesions of the nucleus basalis of Meynert (NBM) and locus coeruleus (LC). For this purpose the salt form multifumarate (mfu) was used.
Male rats were used. They were anesthetized with pentobarbital (50 mg/kg i.p.) and positioned in a stereotaxic apparatus with the upper incisor bar set 5 mm (locus coeruleus, LC) or 3.3 mm (Nucleus basalis of Meynert, NBM) below the interaural line. The lesions were carried out with a radio frequency lesion generator at 60° C. in 10 sec. A corresponding group of sham lesioned rats was carried out. The animals were individually kept in single cage during 6 months after the lesions. Five months after lesion, cortical electrodes were implanted. The animals were caged in a room, maintained at a constant temperature of 22° C. and artificially lighted for 12 hours daily. Before beginning of the experiment, the animals were given a 1 day period of acclimatization in the recording cages. These were tall plastic cylinders within the animals had complete freedom of movement even when the recording cables were attached. ECOG recordings were made continuously during 22-hours period/day, 15 min after the installation of the animal or 15 min after drug administration.
Four groups of animals were studied (A1-4), and statistical analysis (T-test, p<0.05) was performed between the different groups.
A1: 5 lesioned animals, which had received 35 days after lesion 3 mg/kg p.o. of
Compound A during 5 days. Implementation of electrodes 5 months later.
Recording of ECOG on the 22d and 23d days after implantation.
A2: Same as A1 but treated with vehicle instead of Compound A.
A3: S Same as A1 but with Sham rats instead of lesioned animals.
A4: Same as A3 but treated with vehicle instead of Compound A.

[2] = system: sleep-wakefulness cycle in rats
Procedure: In a first set of experiments, the oral (p.o.) and subcutaneous (s.c.) actions of Compound A were evaluated in the sleep-wakefulness cycle in rats. For this purpose the salt forms multifumarate (mfu) or fumarate (fu) were used.
The experiments were carried out in nonanesthetized unrestrained male Wistar rats prepared with chronically implanted electrodes for the recording of the electrocorticogram (ECoG). The animals were caged in a room, maintained at a constant temperature of 22° C. and artificially lighted for 12 hours daily. Before beginning of the experiment, the animals were given a 1 to 3 day period of acclimatization in the recording cages and had complete freedom of movement even when the recording cables were attached. The ECOG recordings were made continuously during 22 to 23-hours period, 15 min after drug administration. Each animal served as its own control. In one experiment, recordings of EcoG were also obtained after administration of distilled water (vehicle used with Compound A) for comparison with no administration, or administration of Compound A.

[3] = 3 mg/kg p.o. (mfu) during 5 days, 35 days after lesion, all recording periods
[4] = 10 mg/kg p.o., 7-11 hours after administration
[5] = 30 mg/kg p.o., first 4 hours of recording

Cc1nccn1Cc1ccccn1 [Compound A, [2-(2-methylimidazol-1-yl)methyl]pyridine]
lesion-induced decrease of classical sleep [1, 3]: partly prevented
lesion-induced increase of wakefulness [1, 3]: partly prevented
alterations of the sleep-wakefulness cycle due to the lesions ([1]; 3 mg/kg p.o. (mfu) during 5 days, 35 days after lesion, recording more than 5 months later, all recording periods): important reduction
nycthemeral cycle abnormalities induced by simultaneous LC+NBM lesions ([1]; several months after last administration): reduce
REM sleep duration ([2]; 1 mg/kg s.c., first 2 hours): reduced
wakefulness ([2]; 1 mg/kg s.c., first 4 hours): enhanced
slow-wave sleep (SWS) sleep onset ([2]; 3 mg/kg p.o.): significantly delayed
active waking ([2]; 3 mg/kg p.o., between 0-4 and 7-11 hours): tended to be increased
REM sleep duration ([2]; 3 mg/kg p.o., first 4 hours): reduced
classical sleep ([2]; 3 mg/kg p.o., first 4 hours): reduced
wakefulness ([2]; 3 mg/kg p.o., first 4 hours): increase
active waking ([2]; 3 mg/kg p.o., last recording interval 18.75-23 hours): significantly increased
REM sleep onset ([2]; 10 mg/kg p.o.): strongly delayed
SWS onset ([2]; 10 mg/kg p.o.): tended to also delay
active waking ([2]; 10 mg/kg p.o., 0-4 hours after administration): significantly increased
REM sleep [2, 4]: tended to be increased
SWS duration [2, 4]: decreased
waking time [2, 4]: significantly increased
classical sleep ([2]; 10 mg/kg p.o., during 3 hours): decreased
waking time ([2]; 10 mg/kg p.o., first 6 hours): tended to increase
REM sleep duration ([2]; 10 mg/kg p.o., for several hours): significantly reduced
REM sleep onset ([2]; 30 mg/kg p.o.): strongly delayed
SWS onset ([2]; 30 mg/kg p.o.): strongly delayed
time the decrease of REM sleep lasted ([2]; 30 mg/kg p.o.): about 11 hours
time the increase of wakefulness lasted ([2]; 30 mg/kg p.o.): about 9 hours
REM sleep duration ([2]; 30 mg/kg p.o., 4-7 hours after administration): decreased
REM sleep duration [2, 5]: decreased
SWS duration [2, 5]: decreased
waking time [2, 5]: increased
changes in the rat nycthemeral rhythm ([2]; 3, 10 and 30 mg/kg (mfu) p.o., 3 and 10 mg/kg (fu) p.o., 1, 3 and 10 mg/kg (mfu) s.c., dose dependent): significant changes
effects on sleep-wakefulness cycle compared with oral administration ([2]; 3 and 10 mg/kg s.c.): nearly the same effects as by oral administration
effect availability (s.c. versus p.o. action) ([2]; action quite similar by s.c. and p.o. administration): good
effects on the sleep wakefulness cycle compared with the mfu form ([2]; fu salt form, 3 and 10 mg/kg p.o.): same effects
